Measurements as given in US7507860B2 (Pfizer Inc., priority 2004, dated 2009).

Molecular target: T1, human androgen receptor (hAR) (Homo sapiens, UniProt P10275)
T1 construct: made in house; host or cells: baculovirus/Sf9 insect cells (crude extract)
T1 sequence (P10275 1-920): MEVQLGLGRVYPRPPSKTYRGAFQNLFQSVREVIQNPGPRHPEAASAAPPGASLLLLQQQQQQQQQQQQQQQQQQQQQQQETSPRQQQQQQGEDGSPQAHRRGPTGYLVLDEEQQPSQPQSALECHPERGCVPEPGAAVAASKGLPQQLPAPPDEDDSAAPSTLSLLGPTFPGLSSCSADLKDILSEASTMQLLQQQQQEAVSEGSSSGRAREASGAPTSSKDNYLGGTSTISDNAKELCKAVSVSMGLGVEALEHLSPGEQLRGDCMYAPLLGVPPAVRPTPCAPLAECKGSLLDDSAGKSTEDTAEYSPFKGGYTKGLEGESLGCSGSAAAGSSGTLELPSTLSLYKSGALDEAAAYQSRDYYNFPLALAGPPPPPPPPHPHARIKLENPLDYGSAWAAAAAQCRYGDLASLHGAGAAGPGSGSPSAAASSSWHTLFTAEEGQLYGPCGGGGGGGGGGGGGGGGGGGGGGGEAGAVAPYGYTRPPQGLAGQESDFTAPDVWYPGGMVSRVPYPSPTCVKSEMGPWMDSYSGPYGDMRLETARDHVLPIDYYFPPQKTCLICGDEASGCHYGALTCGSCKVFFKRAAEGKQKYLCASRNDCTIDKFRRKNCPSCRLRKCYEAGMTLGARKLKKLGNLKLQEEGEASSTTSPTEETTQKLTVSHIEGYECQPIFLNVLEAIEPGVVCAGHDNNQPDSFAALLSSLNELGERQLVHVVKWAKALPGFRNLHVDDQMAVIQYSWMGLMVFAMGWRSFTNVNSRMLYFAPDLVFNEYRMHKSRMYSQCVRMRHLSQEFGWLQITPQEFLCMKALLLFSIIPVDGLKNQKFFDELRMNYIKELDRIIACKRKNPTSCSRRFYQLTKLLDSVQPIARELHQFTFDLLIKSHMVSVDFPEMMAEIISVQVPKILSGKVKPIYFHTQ
Assay: Competitive binding analysis on baculovirus/Sf9 generated hAR extracts with 3H-DHT tracer
Details: hAR extract, 1 nM 3H-DHT, one hour at 4° C; mean of multiple tests; read-out: AR Binding IC50
Description: The compounds of Formula I have affinity for the androgen receptor. […] The description below describes how the assay was carried out.
Competitive binding analysis was performed on baculovirus/Sf9 generated hAR extracts in the presence or absence of different concentrations of test agent and a fixed concentration of ^3H-dihydrotestosterone (^3H-DHT) as tracer. This binding assay method is a modification of a protocol previously described (Liao S., et. al. J. Steroid Biochem. 20:11-17 1984). Briefly, progressively decreasing concentrations of compounds are incubated in the presence of hAR extract (Chang et al. P.N.A.S. Vol. 89, pp. […], 1992), hydroxylapatite, and 1 nM^3H-DHT for one hour at 4° C. Subsequently, the binding reactions are washed three times to completely remove excess unbound ^3H-DHT. hAR bound ^3H-DHT levels are determined in the presence of compounds (=i.e competitive binding) and compared to levels bound when no competitor is present (=i.e. maximum binding). Compound binding affinity to the hAR is expressed as the concentration of compound at which one half of the maximum binding is inhibited. Table II below provides the results that were obtained for selected compounds (reported data is the mean of multiple tests as shown below)

Row | Compound | IC50 [µM]
1 | COc1ccc([C@@H](C)NC(=O)C(CC(C)C)Oc2ccc(C#N)c(C(F)(F)F)c2)cc1 (stereo in doubt) [Example 110, 2-(4-Cyano-3-trifluoromethyl-phenoxy)-4-methyl-pentanoic acid [1-(4-methoxy-phenyl)-ethyl]-amide] | 0.34
2 | CC(C)CC(Oc1ccc(C#N)c(C(F)(F)F)c1)C(=O)N[C@@H](C)c1ccccc1 (stereo in doubt) [Example 112, 2-(4-Cyano-3-trifluoromethyl-phenoxy)-4-methyl-pentanoic acid (1-phenyl-ethyl)-amide] | 0.329
3 | CC(C)CC(Oc1ccc(C#N)c(C(F)(F)F)c1)C(=O)N(Cc1ccccc1)C(C)C (centres unmarked) [Example 63, 2-(4-Cyano-3-trifluoromethyl-phenoxy)-4-methyl-pentanoic acid benzyl-isopropyl-amide] | 0.482
4 | COc1ccc2[nH]cc(CCNC(=O)C(CC(C)C)Oc3ccc(C#N)c(C(F)(F)F)c3)c2c1 (centres unmarked) [Example 98, 2-(4-Cyano-3-trifluoromethyl-phenoxy)-4-methyl-pentanoic acid [2-(5-methoxy-1H-indol-3-yl)-ethyl]-amide] | 0.279
5 | CC(C)CC(Oc1ccc(C#N)c(C(F)(F)F)c1)C(=O)NCc1ccc(C(C)C)cc1 (centres unmarked) [Example 70, 2-(4-Cyano-3-trifluoromethyl-phenoxy)-4-methyl-pentanoic acid 4-isopropyl-benzylamide] | 0.253
6 | CCCC(Oc1ccc(C#N)c(C(F)(F)F)c1)C(=O)NCCSC (centres unmarked) [Example 90, 2-(4-Cyano-3-trifluoromethyl-phenoxy)-pentanoic acid (2-methylsulfanyl-ethyl)amide] | 0.736
7 | CC(C)CC(Oc1ccc(C#N)c(C(F)(F)F)c1)C(=O)N[C@H](C)c1ccccc1 (stereo in doubt) [Example 122, 2-(4-Cyano-3-trifluoromethyl-phenoxy)-4-methyl-pentanoic acid (1-phenyl-ethyl)-amide] | 0.329
8 | Cc1ccc(NC(=O)C(CC(C)C)Oc2ccc(C#N)c(C(F)(F)F)c2)cc1O (centres unmarked) [Example 88, 2-(4-Cyano-3-trifluoromethyl-phenoxy)-4-methyl-pentanoic acid (3-hydroxy-4-methyl-phenyl)-amide] | 0.296
9 | CCCC(Oc1ccc(C#N)c(C(F)(F)F)c1)C(=O)NCCc1ccccc1OC (centres unmarked) [Example 51, 2-(4-Cyano-3-trifluoromethyl-phenoxy)-pentanoic acid-[2-(2-methoxy-phenyl)ethyl]-amide] | 0.381
10 | CC(C)CC(Oc1ccc(C#N)c(C(F)(F)F)c1)C(=O)NCC1Cc2ccccc2CO1 (centres unmarked) [Example 27, 2-(4-Cyano-3-trifluoromethyl-phenoxy)-4-methyl-pentanoic acid (isochroman-3-yl-methyl)-amide] | 0.214
11 | CCCC(Oc1ccc(C#N)c(C(F)(F)F)c1)C(=O)NCCCSC (centres unmarked) [Example 89, 2-(4-Cyano-3-trifluoromethyl-phenoxy)-pentanoic acid (3-methylsulfanyl-propyl)amide] | 0.486
12 | CCNC(=O)C(CC(C)C)Oc1ccc(C#N)c(C(F)(F)F)c1 (centres unmarked) [Example 3, 2-(4-Cyano-3-trifluoromethyl-phenoxy)-4-methyl-pentanoic acid ethylamide] | 0.247
13 | CC(C)CC(Oc1ccc(C#N)c(C(F)(F)F)c1)C(=O)NCc1ccncc1 (centres unmarked) [Example 16, 2-(4-Cyano-3-trifluoromethyl-phenoxy)-4-methyl-pentanoic acid (pyridin-4-yl-methyl)-amide] | 0.368
14 | COc1cccc(CNC(=O)C(CC(C)C)Oc2ccc(C#N)c(C(F)(F)F)c2)c1 (centres unmarked) [Example 71, 2-(4-Cyano-3-trifluoromethyl-phenoxy)-4-methyl-pentanoic acid-3-methoxy-benzylamide] | 0.288
